{"source": "ChEMBL document CHEMBL3044945", "about": "“Synthesis of 1,3,5-trisubstituted pyrazoline nucleus containing compounds and screening for antimicrobial activity” (2012)", "format_in_all_cases": "functional", "key": {"Aspergillus niger [1]": {"tested_on": "Aspergillus niger", "experiment": "Antifungal activity against Aspergillus niger MTCC 2546 after 24 to 48 hr by tube dilution method"}, "Bacillus pumilus": {"tested_on": "Bacillus pumilus", "experiment": "Antibacterial activity against Bacillus pumilus MTCC 1456 at 250 ug/ml after 48 hr by cup-plate method", "details": "MTCC 1456, 48 h, read-out: DIZ"}, "Aspergillus niger [2]": {"tested_on": "Aspergillus niger", "experiment": "Antifungal activity against Aspergillus niger MTCC 2546 at 500 ug/ml after 48 hr by cup-plate method", "details": "MTCC 2546, 48 h, read-out: DIZ"}, "Penicillium chrysogenum [3]": {"tested_on": "Penicillium chrysogenum", "experiment": "Antifungal activity against Penicillium chrysogenum MTCC 161 at 500 ug/ml after 48 hr by cup-plate method", "details": "MTCC 161, 48 h, read-out: DIZ"}, "Pseudomonas aeruginosa [4]": {"tested_on": "Pseudomonas aeruginosa", "experiment": "Antibacterial activity against Pseudomonas aeruginosa MTCC 424 at 250 ug/ml after 48 hr by cup-plate method", "details": "MTCC 424, 48 h, read-out: DIZ"}, "Penicillium chrysogenum [5]": {"tested_on": "Penicillium chrysogenum", "experiment": "Antifungal activity against Penicillium chrysogenum MTCC 161 at 750 ug/ml after 48 hr by cup-plate method", "details": "MTCC 161, 48 h, read-out: DIZ"}, "Escherichia coli [6]": {"tested_on": "Escherichia coli", "experiment": "Antibacterial activity against Escherichia coli MTCC 1573 at 1250 ug/ml after 48 hr by cup-plate method", "details": "MTCC 1573, 48 h, read-out: DIZ"}, "Micrococcus luteus [7]": {"tested_on": "Micrococcus luteus", "experiment": "Antibacterial activity against Micrococcus luteus MTCC 1538 at 250 ug/ml after 48 hr by cup-plate method", "details": "MTCC 1538, 48 h, read-out: DIZ"}, "Pseudomonas aeruginosa [8]": {"tested_on": "Pseudomonas aeruginosa", "experiment": "Antibacterial activity against Pseudomonas aeruginosa MTCC 424 at 100 ug/ml after 48 hr by cup-plate method", "details": "MTCC 424, 48 h, read-out: DIZ"}, "Pseudomonas aeruginosa [9]": {"tested_on": "Pseudomonas aeruginosa", "experiment": "Antibacterial activity against Pseudomonas aeruginosa MTCC 424 at 1250 ug/ml after 48 hr by cup-plate method", "details": "MTCC 424, 48 h, read-out: DIZ"}, "Bacillus subtilis [10]": {"tested_on": "Bacillus subtilis", "experiment": "Antibacterial activity against Bacillus subtilis MTCC 441 at 500 ug/ml after 48 hr by cup-plate method", "details": "MTCC 441, 48 h, read-out: DIZ"}, "Pseudomonas fluorescens [11]": {"tested_on": "Pseudomonas fluorescens", "experiment": "Antibacterial activity against Pseudomonas fluorescens MTCC 2421 at 1000 ug/ml after 48 hr by cup-plate method", "details": "MTCC 2421, 48 h, read-out: DIZ"}, "Micrococcus luteus [12]": {"tested_on": "Micrococcus luteus", "experiment": "Antibacterial activity against Micrococcus luteus MTCC 1538 at 1250 ug/ml after 48 hr by cup-plate method", "details": "MTCC 1538, 48 h, read-out: DIZ"}, "Pseudomonas fluorescens [13]": {"tested_on": "Pseudomonas fluorescens", "experiment": "Antibacterial activity against Pseudomonas fluorescens MTCC 2421 at 1250 ug/ml after 48 hr by cup-plate method", "details": "MTCC 2421, 48 h, read-out: DIZ"}, "Escherichia coli [14]": {"tested_on": "Escherichia coli", "experiment": "Antibacterial activity against Escherichia coli MTCC 1573 at 250 ug/ml after 48 hr by cup-plate method", "details": "MTCC 1573, 48 h, read-out: DIZ"}, "Pseudomonas fluorescens [15]": {"tested_on": "Pseudomonas fluorescens", "experiment": "Antibacterial activity against Pseudomonas fluorescens MTCC 2421 at 750 ug/ml after 48 hr by cup-plate method", "details": "MTCC 2421, 48 h, read-out: DIZ"}, "Penicillium chrysogenum [16]": {"tested_on": "Penicillium chrysogenum", "experiment": "Antifungal activity against Penicillium chrysogenum MTCC 161 at 1250 ug/ml after 48 hr by cup-plate method", "details": "MTCC 161, 48 h, read-out: DIZ"}, "Micrococcus luteus [17]": {"tested_on": "Micrococcus luteus", "experiment": "Antibacterial activity against Micrococcus luteus MTCC 1538 after 24 to 48 hr by tube dilution method"}, "Staphylococcus aureus [18]": {"tested_on": "Staphylococcus aureus", "experiment": "Antibacterial activity against Staphylococcus aureus MTCC 1430 at 1000 ug/ml after 48 hr by cup-plate method", "details": "MTCC 1430, 48 h, read-out: DIZ"}, "Bacillus subtilis [19]": {"tested_on": "Bacillus subtilis", "experiment": "Antibacterial activity against Bacillus subtilis MTCC 441 at 1250 ug/ml after 48 hr by cup-plate method", "details": "MTCC 441, 48 h, read-out: DIZ"}, "Penicillium chrysogenum [20]": {"tested_on": "Penicillium chrysogenum", "experiment": "Antifungal activity against Penicillium chrysogenum MTCC 161 after 24 to 48 hr by tube dilution method"}, "Escherichia coli [21]": {"tested_on": "Escherichia coli", "experiment": "Antibacterial activity against Escherichia coli MTCC 1573 at 1000 ug/ml after 48 hr by cup-plate method", "details": "MTCC 1573, 48 h, read-out: DIZ"}, "Staphylococcus aureus [22]": {"tested_on": "Staphylococcus aureus", "experiment": "Antibacterial activity against Staphylococcus aureus MTCC 1430 at 250 ug/ml after 48 hr by cup-plate method", "details": "MTCC 1430, 48 h, read-out: DIZ"}, "Pseudomonas aeruginosa [23]": {"tested_on": "Pseudomonas aeruginosa", "experiment": "Antibacterial activity against Pseudomonas aeruginosa MTCC 424 at 500 ug/ml after 48 hr by cup-plate method", "details": "MTCC 424, 48 h, read-out: DIZ"}, "Bacillus subtilis [24]": {"tested_on": "Bacillus subtilis", "experiment": "Antibacterial activity against Bacillus subtilis MTCC 441 at 750 ug/ml after 48 hr by cup-plate method", "details": "MTCC 441, 48 h, read-out: DIZ"}, "Aspergillus niger [25]": {"tested_on": "Aspergillus niger", "experiment": "Antifungal activity against Aspergillus niger MTCC 2546 at 1000 ug/ml after 48 hr by cup-plate method", "details": "MTCC 2546, 48 h, read-out: DIZ"}, "Pseudomonas aeruginosa [26]": {"tested_on": "Pseudomonas aeruginosa", "experiment": "Antibacterial activity against Pseudomonas aeruginosa MTCC 424 at 750 ug/ml after 48 hr by cup-plate method", "details": "MTCC 424, 48 h, read-out: DIZ"}}, "data": [{"smiles": "O=[N+]([O-])c1ccc(C2CC(c3cccc4ccccc34)=NN2c2ccc([N+](=O)[O-])cc2[N+](=O)[O-])cc1", "note": "(configuration not stated)", "values": [{"measurement": "MIC", "setting": "Aspergillus niger [1]", "result": 150, "unit": "µg/mL"}, {"measurement": "zone of inhibition at 250 µg/mL", "setting": "Bacillus pumilus", "result": 11, "unit": "mm"}, {"measurement": "zone of inhibition at 500 µg/mL", "setting": "Aspergillus niger [2]", "result": 16, "unit": "mm"}, {"measurement": "zone of inhibition at 500 µg/mL", "setting": "Penicillium chrysogenum [3]", "result": 18, "unit": "mm"}, {"measurement": "zone of inhibition at 250 µg/mL", "setting": "Pseudomonas aeruginosa [4]", "result": 11, "unit": "mm"}, {"measurement": "zone of inhibition at 750 µg/mL", "setting": "Penicillium chrysogenum [5]", "result": 22, "unit": "mm"}, {"measurement": "zone of inhibition at 1250 µg/mL", "setting": "Escherichia coli [6]", "result": 17, "unit": "mm"}, {"measurement": "zone of inhibition at 250 µg/mL", "setting": "Micrococcus luteus [7]", "result": 9, "unit": "mm"}, {"measurement": "zone of inhibition at 100 µg/mL", "setting": "Pseudomonas aeruginosa [8]", "result": 10, "unit": "mm"}, {"measurement": "zone of inhibition at 1250 µg/mL", "setting": "Pseudomonas aeruginosa [9]", "result": 17, "unit": "mm"}, {"measurement": "zone of inhibition at 500 µg/mL", "setting": "Bacillus subtilis [10]", "result": 13, "unit": "mm"}, {"measurement": "zone of inhibition at 1000 µg/mL", "setting": "Pseudomonas fluorescens [11]", "result": 22, "unit": "mm"}, {"measurement": "zone of inhibition at 1250 µg/mL", "setting": "Micrococcus luteus [12]", "result": 14, "unit": "mm"}, {"measurement": "zone of inhibition at 1250 µg/mL", "setting": "Pseudomonas fluorescens [13]", "result": 25, "unit": "mm"}, {"measurement": "zone of inhibition at 250 µg/mL", "setting": "Escherichia coli [14]", "result": 10, "unit": "mm"}, {"measurement": "zone of inhibition at 750 µg/mL", "setting": "Pseudomonas fluorescens [15]", "result": 21, "unit": "mm"}, {"measurement": "zone of inhibition at 1250 µg/mL", "setting": "Penicillium chrysogenum [16]", "result": 26, "unit": "mm"}, {"measurement": "MIC", "setting": "Micrococcus luteus [17]", "result": 150, "unit": "µg/mL"}, {"measurement": "zone of inhibition at 1000 µg/mL", "setting": "Staphylococcus aureus [18]", "result": 12, "unit": "mm"}, {"measurement": "zone of inhibition at 1250 µg/mL", "setting": "Bacillus subtilis [19]", "result": 16, "unit": "mm"}, {"measurement": "MIC", "setting": "Penicillium chrysogenum [20]", "result": 50, "unit": "µg/mL"}, {"measurement": "zone of inhibition at 1000 µg/mL", "setting": "Escherichia coli [21]", "result": 14, "unit": "mm"}, {"measurement": "zone of inhibition at 250 µg/mL", "setting": "Staphylococcus aureus [22]", "result": 8, "unit": "mm"}, {"measurement": "zone of inhibition at 500 µg/mL", "setting": "Pseudomonas aeruginosa [23]", "result": 12, "unit": "mm"}, {"measurement": "zone of inhibition at 750 µg/mL", "setting": "Bacillus subtilis [24]", "result": 14, "unit": "mm"}, {"measurement": "zone of inhibition at 1000 µg/mL", "setting": "Aspergillus niger [25]", "result": 21, "unit": "mm"}, {"measurement": "zone of inhibition at 750 µg/mL", "setting": "Pseudomonas aeruginosa [26]", "result": 13, "unit": "mm"}]}]}
